Experimental data reported in patent US20090074861A1, “STABLE TABLET CONTAINING DROXIDOPA” (DAINIPPON SUMITOMO PHARMA CO., LTD., priority 2005, published 2009).

Assay: Coloring and deliquescence of compressed droxidopa/additive mixtures on preservation
Type: physicochemical
Procedure: Droxidopa and the following excipients were mixed at 1:1 in a mortar and the mixture was compressed at a pressure of 20 kgf/cm^2 using an oil hydraulic press (manufactured by RIKEN). The obtained tablets were preserved under the respective conditions of 60° C. […] The 60° C. 2 week preservation product was measured for the color difference from the initial stage preservation product using a spectral calorimeter (SE-2000: manufactured by Nippon Denshoku Industries Co., Ltd.).
Droxidopa and the following excipients were mixed at 4:1 in a mortar and the mixture was compressed at a pressure of 20 kgf/cm^2 using an oil hydraulic press (manufactured by RIKEN) .

60° C. × 2 W color difference (droxidopa:additive 1:1 compressed tablet, difference from initial stage product): 2.73 | 60° C. × 2 W color difference (droxidopa:additive 4:1 compressed tablet): 2.73
SMILES: N[C@H](C(=O)O)[C@H](O)c1ccc(O)c(O)c1 [droxidopa alone (without disintegrant), droxidopa]
